Results from patent publication US9938273B2 (Plexxikon Inc., priority 2015, dated 2018).

Key:
[1] = target: T1, BA/F3-FLT3-ITD + D835Y cells (Homo sapiens, UniProt P36888, D835Y, cells depend on it, form not given); assay: Cell proliferation assay (CellTiter-Glo), engineered BA/F3 cells; assay type: cell-based, murine; settings: BaF3 FLT3 ITD/D835Y cells, 3d-Growth; read-out: BaF3_FLT3 ITD/D835Y 3d-Growth: IC50
T1 sequence (P36888 1-993 D835Y): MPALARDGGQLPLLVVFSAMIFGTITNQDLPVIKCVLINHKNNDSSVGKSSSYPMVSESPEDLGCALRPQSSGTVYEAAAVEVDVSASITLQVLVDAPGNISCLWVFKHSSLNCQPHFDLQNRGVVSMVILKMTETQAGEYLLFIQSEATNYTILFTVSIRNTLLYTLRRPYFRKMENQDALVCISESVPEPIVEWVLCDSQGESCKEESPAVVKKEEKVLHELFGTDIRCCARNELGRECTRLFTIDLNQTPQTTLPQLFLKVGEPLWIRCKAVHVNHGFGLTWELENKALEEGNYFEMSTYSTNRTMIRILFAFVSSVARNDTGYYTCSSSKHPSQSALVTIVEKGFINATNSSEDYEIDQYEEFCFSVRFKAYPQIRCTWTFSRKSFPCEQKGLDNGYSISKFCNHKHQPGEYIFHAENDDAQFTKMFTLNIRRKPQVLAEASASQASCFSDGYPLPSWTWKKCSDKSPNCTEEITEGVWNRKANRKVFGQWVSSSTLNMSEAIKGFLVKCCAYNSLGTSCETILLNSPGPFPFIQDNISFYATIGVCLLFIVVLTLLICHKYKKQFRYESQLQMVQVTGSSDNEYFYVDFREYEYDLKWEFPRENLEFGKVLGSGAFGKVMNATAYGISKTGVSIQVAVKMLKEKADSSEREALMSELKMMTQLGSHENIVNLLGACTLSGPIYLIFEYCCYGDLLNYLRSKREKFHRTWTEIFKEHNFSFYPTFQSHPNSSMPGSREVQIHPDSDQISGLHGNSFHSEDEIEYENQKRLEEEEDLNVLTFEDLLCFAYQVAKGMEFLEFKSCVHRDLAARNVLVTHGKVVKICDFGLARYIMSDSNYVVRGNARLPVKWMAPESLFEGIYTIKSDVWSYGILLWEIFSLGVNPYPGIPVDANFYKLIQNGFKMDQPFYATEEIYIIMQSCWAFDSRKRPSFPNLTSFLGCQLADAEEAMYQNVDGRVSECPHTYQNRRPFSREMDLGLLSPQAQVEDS
Outline: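 MOLM-14 AML cells (endogenous FLT3 ITD, AC220-selected D835Y or F691L variants) or murine Ba/F3 expressing full-length FLT3 ITD/D835Y, without IL-3 for FLT3 dependence, 1×10^4 cells/well. Eight-point 1:3 series from 1 μM final, 0.2% DMSO, 3 days at 37 °C. CellTiter-Glo luminescence (ATP) gave IC50.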

[2] = target: T2, c-KIT (Homo sapiens, UniProt P10721); assay: AlphaScreen kinase assay with recombinant enzyme, c-KIT; assay type: biochemical; settings: 100ATP, 8pt, GMean
T2 construct: purchased Millipore 14-559K
T2 sequence (P10721 26-976): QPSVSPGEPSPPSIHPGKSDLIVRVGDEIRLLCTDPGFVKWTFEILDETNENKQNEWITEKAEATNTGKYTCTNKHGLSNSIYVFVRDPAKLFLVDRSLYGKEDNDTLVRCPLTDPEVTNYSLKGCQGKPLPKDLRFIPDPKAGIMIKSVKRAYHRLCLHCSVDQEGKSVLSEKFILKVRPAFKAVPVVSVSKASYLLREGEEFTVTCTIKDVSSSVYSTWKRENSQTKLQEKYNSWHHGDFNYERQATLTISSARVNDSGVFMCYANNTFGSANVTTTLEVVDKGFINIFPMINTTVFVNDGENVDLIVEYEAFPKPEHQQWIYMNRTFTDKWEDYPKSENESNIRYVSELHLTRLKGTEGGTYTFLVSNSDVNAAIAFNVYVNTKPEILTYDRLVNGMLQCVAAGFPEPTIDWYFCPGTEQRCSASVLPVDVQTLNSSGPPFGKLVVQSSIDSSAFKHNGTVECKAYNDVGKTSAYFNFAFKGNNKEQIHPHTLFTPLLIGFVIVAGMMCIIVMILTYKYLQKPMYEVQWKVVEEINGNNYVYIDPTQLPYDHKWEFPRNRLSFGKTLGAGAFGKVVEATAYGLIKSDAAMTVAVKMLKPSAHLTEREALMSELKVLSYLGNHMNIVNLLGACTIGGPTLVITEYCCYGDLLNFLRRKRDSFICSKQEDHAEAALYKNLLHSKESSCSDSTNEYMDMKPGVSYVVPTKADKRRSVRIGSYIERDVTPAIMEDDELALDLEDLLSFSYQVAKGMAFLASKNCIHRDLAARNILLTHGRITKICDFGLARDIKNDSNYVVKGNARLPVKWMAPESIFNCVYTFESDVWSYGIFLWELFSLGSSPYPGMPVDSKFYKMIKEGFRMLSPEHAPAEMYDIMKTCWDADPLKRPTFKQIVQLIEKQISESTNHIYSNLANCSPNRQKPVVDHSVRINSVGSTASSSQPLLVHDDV
Outline: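 Inhibition was measured as a drop in AlphaScreen signal arising from phosphotyrosine-bead capture of a biotinylated poly(Glu4-Tyr) peptide (30 nM) phosphorylated by recombinant kinase. For IC50 work the stated final concentration was 10 μM for the FLT3 mutants and 100 μM for c-KIT.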

| GI50 [1] [µM] | IC50 [2] [µM] | Compound |
| --- | --- | --- |
| 0.0001 to 10 | 0.0001 to 10 | CC(=O)NC1CCN(C(=O)c2cccc(-c3cnc4[nH]c(-c5ccc(F)cc5)cc4c3)c2)CC1 [Compound P-0001, N-[1-[3-[2-(4-fluorophenyl)-1H-pyrrolo[2,3-b]pyridin-5-yl]benzoyl]-4-piperidyl]acetamide] |
| 0.0001 to 10 | 0.0001 to 10 | CON(C)C(=O)c1cccc(-c2cnc3[nH]c(-c4ccccc4)cc3c2)c1 [Compound P-0002, N-methoxy-N-methyl-3-(2-phenyl-1H-pyrrolo[2,3-b]pyridin-5-yl)benzamide] |
| 0.0001 to 10 | 0.0001 to 10 | NC1CN(C(=O)c2n[nH]c3ccc(-c4cnc5[nH]c(-c6ccccc6)cc5c4)cc23)C1 [Compound P-0029, (3-aminoazetidin-1-yl)-[5-(2-phenyl-1H-pyrrolo[2,3-b]pyridin-5-yl)-1H-indazol-3-yl]methanone] |
| 0.0001 to 10 | 0.0001 to 10 | CNC(=O)C1CCN(C(=O)c2cccc(-c3cnc4[nH]c(-c5ccccc5)cc4c3)n2)CC1 [Compound P-0030, N-methyl-1-[6-(2-phenyl-1H-pyrrolo[2,3-b]pyridin-5-yl)pyridine-2-carbonyl]piperidine-4-carboxamide] |
| 0.0001 to 10 | 0.0001 to 10 | CCNC(=O)NC1CCN(C(=O)c2cccc(-c3cnc4[nH]c(-c5ccccc5)cc4c3)n2)CC1 [Compound P-0031, 1-ethyl-3-[1-[6-(2-phenyl-1H-pyrrolo[2,3-b]pyridin-5-yl)pyridine-2-carbonyl]-4-piperidyl]urea] |
| 0.0001 to 10 | 10 to 50 | CS(=O)(=O)NC1CCN(C(=O)c2cccc(-c3cnc4[nH]c(-c5ccccc5)cc4c3)n2)CC1 [Compound P-0032, N-[1-[6-(2-phenyl-1H-pyrrolo[2,3-b]pyridin-5-yl)pyridine-2-carbonyl]-4-piperidyl]methanesulfonamide] |
| 0.0001 to 10 | 0.0001 to 10 | Cc1ccc(-c2cnc3[nH]c(-c4ccccc4)cc3c2)nc1C(=O)N1CCC(N)CC1 [Compound P-0033, (4-amino-1-piperidyl)-[3-methyl-6-(2-phenyl-1H-pyrrolo[2,3-b]pyridin-5-yl)-2-pyridyl]methanone] |
| 0.0001 to 10 | 0.0001 to 10 | NC1CCN(c2cccc3ccc(-c4cnc5[nH]c(-c6ccccc6)cc5c4)nc23)CC1 [Compound P-0034, 1-[2-(2-phenyl-1H-pyrrolo[2,3-b]pyridin-5-yl)-8-quinolyl]piperidin-4-amine] |
| 0.0001 to 10 | 0.0001 to 10 | Cc1ccc(-c2cnc3[nH]c(-c4ccccc4)cc3c2)cc1C(=O)N1CCC(N)CC1 [Compound P-0035, (4-amino-1-piperidyl)-[2-methyl-5-(2-phenyl-1H-pyrrolo[2,3-b]pyridin-5-yl)phenyl]methanone] |
| 0.0001 to 10 | 0.0001 to 10 | N[C@H]1CCN(C(=O)c2cccc(-c3cnc4[nH]c(-c5ccccc5)cc4c3)c2)C1 [Compound P-0036, [(3S)-3-aminopyrrolidin-1-yl]-[3-(2-phenyl-1H-pyrrolo[2,3-b]pyridin-5-yl)phenyl]methanone] |
| 0.0001 to 10 | 0.0001 to 10 | NC1CCN(C(=O)c2cc(-c3cnc4[nH]c(-c5ccccc5)cc4c3)ccn2)CC1 [Compound P-0038, (4-amino-1-piperidyl)-[4-(2-phenyl-1H-pyrrolo[2,3-b]pyridin-5-yl)-2-pyridyl]methanone] |
| 0.0001 to 10 | 0.0001 to 10 | O=C(NC1CCNCC1)c1n[nH]c2ccc(-c3cnc4[nH]c(-c5ccccc5)cc4c3)cc12 [Compound P-0039, 5-(2-phenyl-1H-pyrrolo[2,3-b]pyridin-5-yl)-N-(4-piperidyl)-1H-indazole-3-carboxamide] |
| 0.0001 to 10 | 0.0001 to 10 | CNC1CCN(C(=O)c2cccc(-c3cnc4[nH]c(-c5ccccc5)cc4c3)n2)CC1 [Compound P-0041, [4-(methylamino)-1-piperidyl]-[6-(2-phenyl-1H-pyrrolo[2,3-b]pyridin-5-yl)-2-pyridyl]methanone] |
| 0.0001 to 10 | 0.0001 to 10 | NC1CCN(C(=O)c2c[nH]c3ccc(-c4cnc5[nH]c(-c6ccccc6)cc5c4)cc23)CC1 [Compound P-0042, (4-amino-1-piperidyl)-[5-(2-phenyl-1H-pyrrolo[2,3-b]pyridin-5-yl)-1H-indol-3-yl]methanone] |
| 0.0001 to 10 | 0.0001 to 10 | O=C(c1cccc(-c2cnc3[nH]c(-c4ccccc4)cc3c2)n1)C1CCNCC1 [Compound P-0043, [6-(2-phenyl-1H-pyrrolo[2,3-b]pyridin-5-yl)-2-pyridyl]-(4-piperidyl)methanone] |
| 0.0001 to 10 | 0.0001 to 10 | CNC1CCN(C(=O)c2n[nH]c3ccc(-c4cnc5[nH]c(-c6ccccc6)cc5c4)cc23)CC1 [Compound P-0044, [4-(methylamino)-1-piperidyl]-[5-(2-phenyl-1H-pyrrolo[2,3-b]pyridin-5-yl)-1H-indazol-3-yl]methanone] |
| 0.0001 to 10 | 0.0001 to 10 | O=C(NC1CCNC1)c1cccc(-c2cnc3[nH]c(-c4ccccc4)cc3c2)n1 (stereo not drawn) [Compound P-0045, 6-(2-phenyl-1H-pyrrolo[2,3-b]pyridin-5-yl)-N-pyrrolidin-3-yl-pyridine-2-carboxamide] |
| 0.0001 to 10 | 0.0001 to 10 | N[C@H]1CCN(C(=O)c2cc(-c3cnc4[nH]c(-c5ccccc5)cc4c3)ccn2)C1 [Compound P-0046, [(3S)-3-aminopyrrolidin-1-yl]-[4-(2-phenyl-1H-pyrrolo[2,3-b]pyridin-5-yl)-2-pyridyl]methanone] |
| 0.0001 to 10 | 0.0001 to 10 | NC1CCC(C(=O)N2Cc3c(cccc3-c3cnc4[nH]c(-c5ccccc5)cc4c3)C2=O)C1 (stereo not drawn) [Compound P-0047, 2-(3-aminocyclopentanecarbonyl)-4-(2-phenyl-1H-pyrrolo[2,3-b]pyridin-5-yl)isoindolin-1-one] |
| 50 to 100 | – | N[C@H]1CCN(C(=O)c2csc(-c3cnc4[nH]c(-c5ccccc5)cc4c3)n2)C1 [Compound P-0048, [(3S)-3-aminopyrrolidin-1-yl]-[2-(2-phenyl-1H-pyrrolo[2,3-b]pyridin-5-yl)thiazol-4-yl]methanone] |
| 0.0001 to 10 | 0.0001 to 10 | c1ccc(-c2cc3cc(-c4ccc5[nH]nc(NC6CNC6)c5c4)cnc3[nH]2)cc1 [Compound P-0053, N-(azetidin-3-yl)-5-(2-phenyl-1H-pyrrolo[2,3-b]pyridin-5-yl)-1H-indazol-3-amine] |
| 0.0001 to 10 | 0.0001 to 10 | c1ccc(-c2cc3cc(-c4ccc5[nH]nc(NC6CCNCC6)c5c4)cnc3[nH]2)cc1 [Compound P-0056, 5-(2-phenyl-1H-pyrrolo[2,3-b]pyridin-5-yl)-N-(4-piperidyl)-1H-indazol-3-amine] |
| 0.0001 to 10 | – | CN(C(=O)c1cccc(-c2cnc3[nH]c(-c4ccccc4)cc3c2)n1)C1CCNC1 (stereo not drawn) [Compound P-0076, N-methyl-6-(2-phenyl-1H-pyrrolo[2,3-b]pyridin-5-yl)-N-pyrrolidin-3-yl-pyridine-2-carboxamide] |
| 0.0001 to 10 | – | CNC1CCCN(C(=O)c2cccc(-c3cnc4[nH]c(-c5ccccc5)cc4c3)n2)C1 (stereo not drawn) [Compound P-0080, [3-(methylamino)-1-piperidyl]-[6-(2-phenyl-1H-pyrrolo[2,3-b]pyridin-5-yl)-2-pyridyl]methanone] |
| 0.0001 to 10 | – | CC1(N)CCN(C(=O)c2cccc(-c3cnc4[nH]c(-c5ccccc5)cc4c3)n2)CC1 [Compound P-0081, (4-amino-4-methyl-1-piperidyl)-[6-(2-phenyl-1H-pyrrolo[2,3-b]pyridin-5-yl)-2-pyridyl]methanone] |
| 0.0001 to 10 | – | CC1(N)CCCN(C(=O)c2cccc(-c3cnc4[nH]c(-c5ccccc5)cc4c3)n2)C1 (stereo not drawn) [Compound P-0082, (3-amino-3-methyl-1-piperidyl)-[6-(2-phenyl-1H-pyrrolo[2,3-b]pyridin-5-yl)-2-pyridyl]methanone] |
| 0.0001 to 10 | – | N[C@@H]1CN(C(=O)c2cccc(-c3cnc4[nH]c(-c5ccccc5)cc4c3)n2)CC12CC2 [Compound P-0083, [(7S)-7-amino-5-azaspiro[2.4]heptan-5-yl]-[6-(2-phenyl-1H-pyrrolo[2,3-b]pyridin-5-yl)-2-pyridyl]methanone] |
